Molecular target: T1, cPLA2 (Homo sapiens, UniProt P47712)
T1 sequence (P47712 1-749): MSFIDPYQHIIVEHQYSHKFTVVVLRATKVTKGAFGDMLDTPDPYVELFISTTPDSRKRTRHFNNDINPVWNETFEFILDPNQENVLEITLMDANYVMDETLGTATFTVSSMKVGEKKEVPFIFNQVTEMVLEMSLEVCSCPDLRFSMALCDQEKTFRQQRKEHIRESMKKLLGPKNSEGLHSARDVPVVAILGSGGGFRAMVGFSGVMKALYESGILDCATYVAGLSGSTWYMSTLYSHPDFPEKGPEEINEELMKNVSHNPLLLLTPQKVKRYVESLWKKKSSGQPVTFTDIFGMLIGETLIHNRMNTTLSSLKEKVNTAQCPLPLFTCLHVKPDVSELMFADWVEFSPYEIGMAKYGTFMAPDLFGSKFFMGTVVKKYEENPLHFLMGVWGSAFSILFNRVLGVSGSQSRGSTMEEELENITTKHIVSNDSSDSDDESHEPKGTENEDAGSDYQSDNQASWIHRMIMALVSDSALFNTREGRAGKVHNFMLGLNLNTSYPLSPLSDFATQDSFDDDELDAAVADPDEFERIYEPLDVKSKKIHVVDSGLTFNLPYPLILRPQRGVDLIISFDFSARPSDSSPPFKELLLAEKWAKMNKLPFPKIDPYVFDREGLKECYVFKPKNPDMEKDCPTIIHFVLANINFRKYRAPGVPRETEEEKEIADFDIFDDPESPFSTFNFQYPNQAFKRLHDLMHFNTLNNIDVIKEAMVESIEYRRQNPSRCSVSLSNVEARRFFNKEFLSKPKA
Experiment: Coumarine Assay
Assay type: biochemical
Conditions: 60 μM 7-hydroxycoumarinyl 6-heptenoate substrate, 4 μg cPLA2, pH 7.5, fluorescence ex 360 nm / em 460 nm; read-out: Coumarin IC50

| IC50 [µM] | SMILES |
| --- | --- |
| 0.28 | O=C(O)c1ccc(OCCc2c(CCNS(=O)(=O)Cc3c(F)cccc3F)n(C(c3ccccc3)c3ccccc3)c3ccc(Cl)cc23)cc1 [Example 74] |
| 0.4 | O=C(O)c1ccc(OCCc2c(CCNS(=O)(=O)Cc3ccc(Cl)nc3)n(C(c3ccccc3)c3ccccc3)c3ccc(Cl)cc23)cc1 [Example 75, 4-(2-{1-benzhydryl-5-chloro-2-[2-({[(6-chloro-3-pyridinyl)methyl]sulfonyl}amino)ethyl]-1H-indol-3-yl}ethoxy)benzoic acid] |
| 0.48 | COc1cccc(CS(=O)(=O)NCCc2c(CCOc3ccc(C(=O)O)cc3)c3cc(Cl)ccc3n2C(c2ccccc2)c2ccccc2)c1 [Example 77, 4-{2-[1-Benzhydryl-5chloro-2-(2-{[(3-methoxybenzyl)sulfonyl]amino}ethyl)-1H-indol-3-yl]ethoxy}benzoic acid] |
| 0.34 | Cc1cc(C)cc(CS(=O)(=O)NCCc2c(CCOc3ccc(C(=O)O)cc3)c3cc(Cl)ccc3n2C(c2ccccc2)c2ccccc2)c1 [Example 78, 4-{2-[1-Benzhydryl-5-chloro-2-(2-{[(3,5-dimethylbenzyl)sulfonyl]amino}ethyl)-1H-indol-3-yl]ethoxy)benzoic acid] |
| 0.15 | Cc1ccccc1CS(=O)(=O)NCCc1c(CCOc2ccc(C(=O)O)cc2)c2cc(Cl)ccc2n1C(c1ccccc1)c1ccccc1 [Example 79, 4-{2-[1-Benzhydryl-5-chloro-2-(2-{[(2-methylbenzyl)sulfonyl]amino}ethyl)-1H-indol3-yl]ethoxy}benzoic acid] |
| 0.47 | O=C(O)c1ccc(OCCc2c(CCNS(=O)(=O)CSc3ccccc3)n(C(c3ccccc3)c3ccccc3)c3ccc(Cl)cc23)cc1 [Example 81, 4-(2-{1-benzhydryl-5-chloro-2-[2-({[(phenylsulfanyl)methyl]sulfonyl}amino)ethyl]-1H-indol-3-yl}ethoxy)benzoic acid] |
| 0.5 | Cc1cccc(C)c1SCS(=O)(=O)NCCc1c(CCOc2ccc(C(=O)O)cc2)c2cc(Cl)ccc2n1C(c1ccccc1)c1ccccc1 [Example 82] |
| 0.5 | Cc1cccc(Cl)c1SCS(=O)(=O)NCCc1c(CCOc2ccc(C(=O)O)cc2)c2cc(Cl)ccc2n1C(c1ccccc1)c1ccccc1 [Example 84] |
| 0.4 | O=C(O)c1ccc(OCCc2c(CCNS(=O)(=O)CSc3cc(Cl)cc(Cl)c3)n(C(c3ccccc3)c3ccccc3)c3ccc(Cl)cc23)cc1 [Example 85] |
| 0.6 | COc1ccc(SCS(=O)(=O)NCCc2c(CCOc3ccc(C(=O)O)cc3)c3cc(Cl)ccc3n2C(c2ccccc2)c2ccccc2)cc1OC [Example 86] |
| 1.2 | O=C(O)c1ccc(OCCc2c(CCNS(=O)(=O)CCN3CCOCC3)n(C(c3ccccc3)c3ccccc3)c3ccc(Cl)cc23)cc1 [Example 87, 4-(2-{1-Benzhydryl-5-chloro-2-[2-(2-morpholin-4-ylethanesulfonylamino)-ethyl]-1H-indol-3-yl}-ethoxy)-benzoic acid] |
| 0.38 | O=C(O)c1ccc(OCCc2c(CCNS(=O)(=O)CCNc3ccccc3)n(C(c3ccccc3)c3ccccc3)c3ccc(Cl)cc23)cc1 [Example 89, 4-(2-{1-Benzhydryl-5-chloro-2-[2-(2-phenylamino-ethanesulfonylamino)-ethyl]-1H-indol-3-yl}-ethoxy)-benzoic acid] |
| 0.65 | O=C(O)c1ccc(OCCc2c(CCNS(=O)(=O)CCN3CCC4(CC3)OCCO4)n(C(c3ccccc3)c3ccccc3)c3ccc(Cl)cc23)cc1 [Example 90, 4-(2-{1-benzhydryl-5-chloro-2-[2-({[2-(1,4-dioxa-8-azaspiro[4.5]dec-8-yl)ethyl]sulfonyl}amino)ethyl]-1H-indol-3-yl}ethoxy)benzoic acid] |
| 0.5 | O=C(O)c1ccc(OCCc2c(CCNS(=O)(=O)CCN3CCN(c4ccccn4)CC3)n(C(c3ccccc3)c3ccccc3)c3ccc(Cl)cc23)cc1 [Example 91, 4-[2-(1-benzhydryl-5-chloro-2-{2-[({2-[4-(2-pyridinyl)-1-piperazinyl]ethyl}sulfonyl)amino]ethyl}-1H-indol-3-yl)ethoxy]benzoic acid] |
| 0.56 | Cc1cc(C)n(CCS(=O)(=O)NCCc2c(CCOc3ccc(C(=O)O)cc3)c3cc(Cl)ccc3n2C(c2ccccc2)c2ccccc2)n1 [Example 93, 4-(2-{1-benzhydryl-5-chloro-2-[2-({[2-(3,5-dimethyl-1H-pyrazol-1-yl)ethyl]sulfonyl}amino)ethyl]-1H-indol-3-yl}ethoxy)benzoic acid] |
| 0.8 | Cc1ccn(CCS(=O)(=O)NCCc2c(CCOc3ccc(C(=O)O)cc3)c3cc(Cl)ccc3n2C(c2ccccc2)c2ccccc2)n1 [Example 94, 4-(2-{1-benzhydryl-5-chloro-2-[2-({[2-(3-methyl-1H-pyrazol-1-yl)ethyl]sulfonyl}amino)ethyl]-1H-indol-3-yl}ethoxy)benzoic acid] |
| 0.85 | Cc1cnn(CCS(=O)(=O)NCCc2c(CCOc3ccc(C(=O)O)cc3)c3cc(Cl)ccc3n2C(c2ccccc2)c2ccccc2)c1 [Example 95, 4-(2-{1-benzhydryl-5-chloro-2-[2-({[2-(4-methyl-1H-pyrazol-1-yl)ethyl]sulfonyl}amino)ethyl]-1H-indol-3-yl}ethoxy)benzoic acid] |
| 0.95 | C[C@@H]1CCC[C@H](C)N1CCS(=O)(=O)NCCc1c(CCOc2ccc(C(=O)O)cc2)c2cc(Cl)ccc2n1C(c1ccccc1)c1ccccc1 [Example 96, 4-[2-(1-benzhydryl-5-chloro-2-{2-[({2-[(2R,6S)-2,6-dimethyl-1-piperidinyl]ethyl}sulfonyl)amino]ethyl}-1H-indol-3-yl)ethoxy]benzoic acid] |
| 0.95 | O=C(O)c1ccc(OCCc2c(CCNS(=O)(=O)CCN3CCNC3=S)n(C(c3ccccc3)c3ccccc3)c3ccc(Cl)cc23)cc1 [Example 97, 4-(2-{1-benzhydryl-5-chloro-2-[2-({[2-(2-thioxo-1-imidazolidinyl)ethyl]sulfonyl}amino)ethyl]-1H-indol-3-yl}ethoxy)benzoic acid] |
| 0.12 | O=C(O)c1ccc(CCCc2c(CCNS(=O)(=O)CCN3CCOCC3)n(C(c3ccccc3)c3ccccc3)c3ccc(Cl)cc23)cc1 [Example 100, 4-(3-{1-Benzhydryl-5-chloro-2-[2-(2-morpholin-4-yl-ethanesulfonylamino)-ethyl]-1H-indol-3-yl}-propyl)-benzoic acid] |

| SMILES | IC50 [µM] |
| --- | --- |
| O=C(O)c1ccc(OCCc2c(CCNS(=O)(=O)Cc3c(Cl)cccc3Cl)n(C(c3ccccc3)c3ccccc3)c3ccc(Cl)cc23)cc1 [Example 73, 4-{2-[1-Benzhydryl-5-chloro-2-(2-{[(2-dichlorobenzyl)sulfonyl]amino}ethyl)-1H-indol-3-yl]ethoxy}benzoic acid] | 0.3 |
| O=C(O)c1ccc(OCCc2c(CCNS(=O)(=O)Cc3ccc(Cl)c(Cl)n3)n(C(c3ccccc3)c3ccccc3)c3ccc(Cl)cc23)cc1 [Example 76] | 0.4 |
| O=C(O)c1ccc(OCCc2c(CCNS(=O)(=O)Cc3c(Cl)cccc3Cl)n(C(c3ccccc3)c3ccccc3)c3ccc(Cl)cc23)cc1 [Example 80, 4-{2-[1-Benzhydryl-5-chloro-2-(2-{[(2,6-dichlorobenzyl)sulfonyl]amino}ethyl)-1H-indol-3-yl]ethoxy}benzoic acid] | 3.7 |
| COc1ccccc1SCS(=O)(=O)NCCc1c(CCOc2ccc(C(=O)O)cc2)c2cc(Cl)ccc2n1C(c1ccccc1)c1ccccc1 [Example 83] | 0.45 |

From patent publication US6635771B2, “N-benzhydryl indole compounds” (Wyeth, priority 2001, dated 2003)
